Experimental data: EP0946579B1, “NOVEL ERYTHROMYCIN DERIVATIVES, METHOD FOR PREPARING THEM AND THEIR USE AS MEDICINE” (Aventis Pharma S.A., priority 1996, dated 1998)
Converted amounts (≈) assume the structure as drawn.

Experiments:
Type in all cases: cell-based
[1] = system: Streptococcus agalactiae groupe B 02B1HT1; assay: Dilution method in liquid medium (MIC); settings: incubation 24 h at 37°C, read-out: concentrations minimales inhibitrices (C.M.I.)
Experimental: (§1) Méthode des dilutions en milieu liquide
(§2) On a préparé une série de tubes dans lesquels on répartit une même quantité de milieu nutritif stérile. On distribue dans chaque tube des quantités croissantes du produit à étudier, puis chaque tube est ensemencé avec une souche bactérienne. Après incubation de vingt-quatre heures à l'étuve à 37°C, l'inhibition de la croissance est appréciée par transillumination de ce qui permet de déterminer les concentrations minimales inhibitrices (C.M.I.) exprimées en microgrammes/cm^3.

[2] = system: Streptococcus pyogenes groupe A 02A1UC1; assay: Dilution method in liquid medium (MIC); settings: incubation 24 h at 37°C, read-out: concentrations minimales inhibitrices (C.M.I.)
Experimental: as §1, §2

[3] = system: Staphylococcus epidermidis 012GO11I; assay: Dilution method in liquid medium (MIC); settings: incubation 24 h at 37°C, read-out: concentrations minimales inhibitrices (C.M.I.)
Experimental: as §1, §2

[4] = system: Streptococcus faecalis groupe D 02D2UC1; assay: Dilution method in liquid medium (MIC); settings: Enterococcus faecalis, incubation 24 h at 37°C, read-out: concentrations minimales inhibitrices (C.M.I.)
Experimental: as §1, §2

[5] = system: Streptococcus agalactiae groupe B 02B1SJ1; assay: Dilution method in liquid medium (MIC); settings: incubation 24 h at 37°C, read-out: concentrations minimales inhibitrices (C.M.I.)
Experimental: as §1, §2

[6] = system: Streptococcus mitis 02mitGR16I; assay: Dilution method in liquid medium (MIC); settings: incubation 24 h at 37°C, read-out: concentrations minimales inhibitrices (C.M.I.)
Experimental: as §1, §2

[7] = system: Staphylococcus aureus 011G025I; assay: Dilution method in liquid medium (MIC); settings: incubation 24 h at 37°C, read-out: concentrations minimales inhibitrices (C.M.I.)
Experimental: as §1, §2

[8] = system: Streptococcus mitis 02mitCB1; assay: Dilution method in liquid medium (MIC); settings: incubation 24 h at 37°C, read-out: concentrations minimales inhibitrices (C.M.I.)
Experimental: as §1, §2

[9] = system: Streptococcus sp groupe G 02G0GR5; assay: Dilution method in liquid medium (MIC); settings: incubation 24 h at 37°C, read-out: concentrations minimales inhibitrices (C.M.I.)
Experimental: as §1, §2

[10] = system: Streptococcus faecium groupe D 02D3HT1; assay: Dilution method in liquid medium (MIC); settings: Enterococcus faecium, incubation 24 h at 37°C, read-out: concentrations minimales inhibitrices (C.M.I.)
Experimental: as §1, §2

[11] = system: Staphylococcus aureus 011UC4; assay: Dilution method in liquid medium (MIC); settings: incubation 24 h at 37°C, read-out: concentrations minimales inhibitrices (C.M.I.)
Experimental: as §1, §2

[12] = system: Streptococcus pneumoniae 032UC1; assay: Dilution method in liquid medium (MIC); settings: incubation 24 h at 37°C, read-out: concentrations minimales inhibitrices (C.M.I.)
Experimental: as §1, §2

[13] = system: Haemophilus Influenzae 351GR6; assay: Antibacterial activity on gram-negative strains; settings: result in words
Experimental: as §2

[14] = system: Haemophilus Influenzae 351CB12; assay: Antibacterial activity on gram-negative strains; settings: result in words
Experimental: as §2

[15] = system: Haemophilus Influenzae 351HT3; assay: Antibacterial activity on gram-negative strains; settings: result in words
Experimental: as §2

[16] = system: Haemophilus Influenzae 351CA1; assay: Antibacterial activity on gram-negative strains; settings: result in words
Experimental: as §2

Structure (SMILES) | MIC [1] [mg/L] | MIC [2] [mg/L] | MIC [3] [mg/L] | MIC [4] [mg/L] | MIC [5] [mg/L] | MIC [6] [mg/L] | MIC [7] [mg/L] | MIC [8] [mg/L] | MIC [9] [mg/L] | MIC [10] [mg/L] | MIC [11] [mg/L] | MIC [12] [mg/L] | activité sur les souches bactériennes à gram⊖ [13] | activité sur les souches bactériennes à gram⊖ [14] | activité sur les souches bactériennes à gram⊖ [15] | activité sur les souches bactériennes à gram⊖ [16]
CC[C@H]1OC(=O)[C@H](C)C(=O)[C@H](C)[C@@H](O[C@@H]2O[C@H](C)C[C@H](N(C)C)[C@H]2O)[C@](C)(OC)C[C@@H](C)C(=O)[C@H](C)[C@H]2N(COCCn3cnc(-c4cccnc4)c3)C(=O)O[C@]12C [Ex. 2] | ≤ 0.02 | ≤ 0.02 | 0.08 (≈ 0.0983 µM) | ≤ 0.02 | 0.08 (≈ 0.0983 µM) | ≤ 0.02 | 0.08 (≈ 0.0983 µM) | ≤ 0.02 | ≤ 0.02 | ≤ 0.02 | 0.08 (≈ 0.0983 µM) | 0.02 (≈ 0.0246 µM) | – | – | – | –
CC[C@H]1OC(=O)[C@H](C)C(=O)[C@H](C)[C@@H](O[C@@H]2O[C@H](C)C[C@H](N(C)C)[C@H]2O)[C@](C)(OC)C[C@@H](C)C(=O)[C@H](C)[C@H]2N(COCCc3ccccc3)C(=O)O[C@]12C [Ex. 3, 11,12-didéoxy-3-de[(2,6-didéoxy-3-C-méthyl-3-O-méthyl-alpha-L-ribo-hexopyranosyl)oxy]-6-O-méthyl-3-oxo-12,11-[oxycarbonyl[[(2-phényléthoxy)méthyl]imino]]-érythromycine] | ≤ 0.02 | ≤ 0.02 | 0.08 (≈ 0.107 µM) | ≤ 0.04 | 0.04 (≈ 0.0536 µM) | ≤ 0.02 | 0.15 (≈ 0.201 µM) | ≤ 0.02 | ≤ 0.02 | ≤ 0.02 | 0.04 (≈ 0.0536 µM) | ≤ 0.02 | – | – | – | –
CC[C@H]1OC(=O)[C@H](C)C(=O)[C@H](C)[C@@H](O[C@@H]2O[C@H](C)C[C@H](N(C)C)[C@H]2O)[C@](C)(OC)C[C@@H](C)C(=O)[C@H](C)[C@H]2N(COCCOC)C(=O)O[C@]12C [exemple 1, 11,12-didéoxy-3-de[(2,6-didéoxy-3-C-méthyl-3-O-méthyl-alpha-L-ribo-hexopyranosyl)oxy]-6-O-méthyl-3-oxo-12,11-[oxycarbonyl[[(2-méthoxyéthoxy)méthyl]imino]]-érythromycine] | – | – | – | – | – | – | – | – | – | – | – | – | activité intéressante | activité intéressante | activité intéressante | activité intéressante
